This note sets out measurements from paper PMC9645260, “Small-molecule inhibitors of P-Rex guanine-nucleotide exchange factors” (Small GTPases, 2022).

In the test the test system is Rac1 or Rac2. The test is described as follows: Basal GTP-loading of Rac in the absence of P-Rex1 (liposome-based assay). To be noted: 10 µM. The format is biochemical, human. From the text:
All small GTPases and GEFs used were human recombinant proteins. EE-Rac1, EE-Rac2, GST-Cdc42 or GST-RhoA were expressed in Sf9 cells by baculoviral transduction and purified using their epitope tag in their post-translationally prenylated form using Triton X-114 phase separation, essentially as previously described. Briefly, frozen pellets from a 1 litre culture of Sf9 cells transduced with high-titre baculovirus expressing the small GTPase were resuspended in ice-cold Sf9-cell lysis buffer 1 (1x PBS, 40 mM HEPES pH 7.5 at RT, 5 mM MgCl2, 10 mM EGTA, 300 µM GDP, 1 mM DTT, 200 µM PMSF, 20 μg/ml each of leupeptin, pepstatin A, aprotinin and antipain) and lysed by sonication. Triton X-114 was added (to 1% final concentration), and samples were ultracentrifuged at 118,000 × g for 50 min at 4°C. The supernatant was warmed at 37°C until cloudy (30–60 seconds) and centrifuged at 1300 × g for 2 min at 37°C. The upper phase containing non-lipid modified GTPase was discarded and replaced with ice-cold Sf9-cell lysis buffer. The warming/centrifugation steps were repeated twice and lipid-modified GTPase resuspended in ice-cold Sf9-cell lysis buffer 1 supplemented with Triton X-100 (1% final concentration), followed by ultracentrifugation at 118,000 × g for 50 min at 4°C. […] Protein concentration and purity was determined by coomassie staining of SDS-PAGE gels. […]

Structures are written as SMILES.

On to `CC1CCC(C(C)C)c2nn(C(=O)/C=C\c3ccccc3)c(-c3cccc4ccccc34)c21` (centres unmarked) [#10], for which the “effect on basal GTP-loading of Rac1 or Rac2 in the absence of P-Rex1” value is on record as “neither compound affected”.
Consider `COc1ccc(-c2[nH]nc3c2C(c2ccc(-c4ccc(Cl)cc4)o2)C(C#N)=C(N)O3)cc1` (centres unmarked) [PREX-in1, 6-amino-4-[5-(4-chlorophenyl)-2-furyl]-3-(4-methoxyphenyl)-2,4-dihydropyrano[2,3-c]pyrazole-5-carbonitrile], for which the “effect on basal GTP-loading of Rac1 or Rac2 in the absence of P-Rex1” value is “neither compound affected”.
